Source: patent US8835466B2, “Synthesis and uses of pyroglutamic acid derivatives” (Prodimed, S.A., priority 2006, dated 2014)

How the values were obtained:
[1] = tested on: Ehrlich tumour cells (murine mammary adenocarcinoma); experiment: Effect of isomers and BLAS on in vivo tumour growth, Ehrlich tumours (Example 9); design: species or system Balb/c mice; conditions: for Inhibition of the in vivo growth of Ehrlich tumour cells, in words: 260 ng i.p. days 6, 7 and 14; for Tumour surface, overall values (Mean) / Tumour surface, overall values (Median) / Tumour volume, overall values (Mean) / Tumour volume, overall values (Median): 260 ng/mouse i.p. days 6, 7 and 14; for Differences in Ehrlich tumour growth rate vs. placebo, statistical significance p (Mann-Whitney U test): either in surface or volume
Description: This assay was made in order to compare the effect of each stereoisomer on in vivo tumour growth in mice with the effect of the mixture of all of them challenged with Ehlrich tumours. The same products, equipment, reagents, doses, vehicle and route of administration as in example 8 were used.
Mice were inoculated with Ehrlich tumour cells. It was described as a murine mammary adenocarcinoma. Ehrlich tumour is a murine mammary carcinoma originally raised in an outbred mouse, and therefore it belongs to the so-called non-specific tumours (Subiza J L, Viñuela J E, Rodriguez R, Gil J, Figueredo M A, de la Concha. E G. Development of splenic natural suppressor (NS) cells in Ehrlich tumor bearing mice. Int J Cancer, 44:307 315; 1989). It may grow across histocompatibility barriers and therefore is not mouse strain specific (Carry P J, Prescott D M, Ogilvie G K. Resistance to Ehrlich ascites tumor in a strain of dystrophic mice. Cancer Res., 39:2139-2140; 1979).
Ehrlich cells were maintained in vitro by serial passages every 3-4 days. Cultures were performed with RPMI medium medium (RPMI, 10% foetal calf serum, 2 mM L-glutamine, non essential aminoacids, 1 mM sodium pyruvate, 20 mM HEPES, 80 μg/mL gentamycin; all of them were purchased from Sigma, St. Louis, Mo., USA) by seeding 5×10^6 cells onto 75 cm^2 culture flasks. Tumour cells collected from 48 hour cultures were used as source of cells for the studies described below.
Tumours were established by subcutaneous inoculation in the right hind flank. Mice (Balb/c) were inoculated with 0.2 mL containing 2×10^5 viable Ehrlich cells. The day of subcutaneous inoculation will be considered Day 0 of the test.
(§1) Mice were observed daily and the tumour size recorded twice a week. This was carried out by measuring two perpendicular diameters (L/W) with a calliper. These measures were used to obtain both tumour surface and volume: Tumour surface=L×W(mm^2) Tumour volume=L×W^2×½(mm^3)
(§2) Results were expressed as single values and/or as the mean±SD or median from each experimental group.
(§3) A case-control study was performed with treated and control mice in order to determine whether differences between BLAS or each diferent stereoisomer and administration of placebo were present. […] The U-test of Mann Withney was chosen for being one of the better known non-parametrical tests, anyway, results for this test are equivalent both to those of Wilcoxon's sum of ranges and Kruskal-Wallis two-groups test.

[2] = tested on: Renca cells (renal cell carcinoma); experiment: Effect of isomers on in vivo tumour growth in mice challenged with Renca cells (Example 7); design: species or system Balb/c mice; conditions: for Tumour surface, overall values (Mean) / Tumour surface, overall values (Median) / Tumour volume, overall values (Mean) / Tumour volume, overall values (Median): 260 ng/mouse i.p. days 6, 7, 14
Description: This assay was made in order to check the effect of each stereoisomer on in vivo tumour growth in mice challenged with Renca cells. Their effect was compared with placebo. The stereoisomers assayed were:
Renca is a renal cell carcinoma originated in Balb/c mouse strain, and therefore syngeneic in mice with Balb/c genetic background [Melder R J et al., Cancer Immunol. Immunother., 2005, 54:535-547; Felluga B et al., 1969, J. Natl. Cancer Inst. 43:319-333]. Renca is considered a moderate immunogenic tumour and used as suitable model for testing immunointervention approaches [Salup R R, et al., 1992, The Journal of Urology, 147:1120-1123].
Renca cells (CLS, Eppelheim, Germany) were maintained in vitro by serial passages every 3-4 days. Cultures were performed with RPMI medium medium (RPMI, 10% foetal calf serum, 2 mM L-glutamine, non essential amino acids, 1 mM sodium pyruvate, 20 mM HEPES, 80 μg/mL gentamycin; all of them were purchased from Sigma, St. Louis, Mo., USA) by seeding 5×10^6 cells onto 75 cm^2 culture flasks. Tumour cells collected from 48 hour cultures upon trypsinization (Sigma, St. Louis, Mo., USA) were used as source of Renca cells for the studies described below.
Each isomer was tested at the dose levels of 260 ng administered on days 6, 7 and 14 after tumour inoculation.
The treatments were given by intraperitoneal route (i.p.). The volume inoculated was 0.2 mL/animal. This route was chosen because it is the one described in the original method [Pérez S, et al., 2003, Clinical Cancer Research. 9:5776-5785].
Tumours were established by subcutaneous inoculation in the right hind flank. Mice (Balb/c) were inoculated with 0.2 mL containing 10^5 viable Renca cells. The day of subcutaneous inoculation will be considered Day 0 of the test.
as §1, §2
as §3, with “isomers” for “BLAS or each diferent stereoisomer”
Due to the high dispersion of data, outlayers (animals beyond percentile 25 or above percentile 75 for tumour surface at day 25) were excluded of the study.

[3] = day 13 after tumour inoculation
[4] = day 16 after tumour inoculation
[5] = day 20 after tumour inoculation
[6] = day 23 after tumour inoculation
[7] = day 29 after tumour inoculation
[8] = day 31 after tumour inoculation
[9] = day 35 after tumour inoculation
[10] = day 38 after tumour inoculation
[11] = day 11 after tumour inoculation
[12] = day 14 after tumour inoculation

Br.N[C@]1(C[n+]2ccccc2)C[C@H](C(=O)O)NC1=O.[Br-] (single isomer, unassigned; isomer 4) [isomer 4, 3S,5R-1-(3-Amino-5-carboxy-2-oxopyrrolidin-3-ylmethyl)pyridinium bromide hidrobromide]
Inhibition of the in vivo growth of Ehrlich tumour cells, in words [1]: inhibit the in vivo growth | Tumour surface, overall values (Mean) ([1]; day 0 after tumour inoculation): 0 mm^2 | Tumour surface, overall values (Median) ([1]; day 0 after tumour inoculation): 0 mm^2 | Tumour volume, overall values (Mean) ([1]; day 0 after tumour inoculation): 0 mm^3 | Tumour volume, overall values (Median) ([1]; day 0 after tumour inoculation): 0 mm^3 | Tumour surface, overall values (Mean) ([1]; day 8 after tumour inoculation): 3.37 mm^2 | Tumour surface, overall values (Median) ([1]; day 8 after tumour inoculation): 0 mm^2 | Tumour volume, overall values (Mean) ([1]; day 8 after tumour inoculation): 5.94 mm^3 | Tumour volume, overall values (Median) ([1]; day 8 after tumour inoculation): 0 mm^3 | Tumour surface, overall values (Mean) [1, 3]: 12.44 mm^2 | Tumour surface, overall values (Median) [1, 3]: 12.5 mm^2 | Tumour volume, overall values (Mean) [1, 3]: 26.91 mm^3 | Tumour volume, overall values (Median) [1, 3]: 22.75 mm^3 | Tumour surface, overall values (Mean) [1, 4]: 20.19 mm^2 | Tumour surface, overall values (Median) [1, 4]: 18 mm^2 | Tumour volume, overall values (Mean) [1, 4]: 50.34 mm^3 | Tumour volume, overall values (Median) [1, 4]: 36 mm^3 | Tumour surface, overall values (Mean) [1, 5]: 31.31 mm^2 | Tumour surface, overall values (Median) [1, 5]: 27.5 mm^2 | Tumour volume, overall values (Mean) [1, 5]: 95.59 mm^3 | Tumour volume, overall values (Median) [1, 5]: 68.75 mm^3 | Tumour surface, overall values (Mean) [1, 6]: 43.06 mm^2 | Tumour surface, overall values (Median) [1, 6]: 39 mm^2 | Tumour volume, overall values (Mean) [1, 6]: 156.53 mm^3 | Tumour volume, overall values (Median) [1, 6]: 117 mm^3 | Tumour surface, overall values (Mean) [1, 7]: 52.94 mm^2 | Tumour surface, overall values (Median) [1, 7]: 45 mm^2 | Tumour volume, overall values (Mean) [1, 7]: 214.91 mm^3 | Tumour volume, overall values (Median) [1, 7]: 135 mm^3 | Tumour surface, overall values (Mean) [1, 8]: 63.12 mm^2 | Tumour surface, overall values (Median) [1, 8]: 48.5 mm^2 | Tumour volume, overall values (Mean) [1, 8]: 274.94 mm^3 | Tumour volume, overall values (Median) [1, 8]: 157.75 mm^3 | Tumour surface, overall values (Mean) [1, 9]: 76.31 mm^2 | Tumour surface, overall values (Median) [1, 9]: 52.5 mm^2 | Tumour volume, overall values (Mean) [1, 9]: 379.72 mm^3 | Tumour volume, overall values (Median) [1, 9]: 183.75 mm^3 | Tumour surface, overall values (Mean) [1, 10]: 91.56 mm^2 | Tumour surface, overall values (Median) [1, 10]: 68 mm^2 | Tumour volume, overall values (Mean) [1, 10]: 504.22 mm^3 | Tumour volume, overall values (Median) [1, 10]: 272 mm^3 | Differences in Ehrlich tumour growth rate vs. placebo, statistical significance p (Mann-Whitney U test) ([1]; all days scored after the day 8th): < 0.05 | Ehrlich tumour growth vs. placebo, tendency p ([1]; surface, day 35th): 0.061 | Ehrlich tumour growth vs. placebo, tendency p ([1]; surface, day 38th): 0.08 | Ehrlich tumour growth vs. placebo, tendency p ([1]; volume, days 35th and 38th (both of them)): 0.102 | Inhibition of the in vivo growth of the renal cell carcinoma (Renca), in words ([2]; 260 ng i.p. days 6, 7, 14): inhibit the in vivo growth | Inhibitory effect on Renca tumour growth compared among isomers, in words ([2]; 260 ng i.p. days 6, 7, 14): highest inhibitory effect | Tumour surface, overall values (Mean) ([2]; day 0 after tumour inoculation): 0 mm^2 | Tumour surface, overall values (Median) ([2]; day 0 after tumour inoculation): 0 mm^2 | Tumour volume, overall values (Mean) ([2]; day 0 after tumour inoculation): 0 mm^3 | Tumour volume, overall values (Median) ([2]; day 0 after tumour inoculation): 0 mm^3 | Tumour surface, overall values (Mean) [2, 11]: 0 mm^2 | Tumour surface, overall values (Median) [2, 11]: 0 mm^2 | Tumour volume, overall values (Mean) [2, 11]: 0 mm^3 | Tumour volume, overall values (Median) [2, 11]: 0 mm^3 | Tumour surface, overall values (Median) [2, 12]: 0 mm^2 | Tumour volume, overall values (Median) [2, 12]: 0 mm^3 | Tumour surface, overall values (Median) ([2]; day 18 after tumour inoculation): 9 mm^2 | Differences in Renca tumour growth rate vs. placebo, statistical significance p (Mann-Whitney U test) ([2]; either in surface or volume, all days scored after the day 14th): < 0.01

Br.N[C@@]1(C[n+]2ccccc2)C[C@@H](C(=O)O)NC1=O.[Br-] (single isomer, unassigned; isomer 1) [isomer 1, 3R,5S-1-(3-Amino-5-carboxy-2-oxopyrrolidin-3-ylmethyl)pyridinium bromide hidrobromide]
Inhibition of the in vivo growth of Ehrlich tumour cells, in words [1]: inhibit the in vivo growth | Tumour surface, overall values (Mean) ([1]; day 0 after tumour inoculation): 0 mm^2 | Tumour surface, overall values (Median) ([1]; day 0 after tumour inoculation): 0 mm^2 | Tumour volume, overall values (Mean) ([1]; day 0 after tumour inoculation): 0 mm^3 | Tumour volume, overall values (Median) ([1]; day 0 after tumour inoculation): 0 mm^3 | Tumour surface, overall values (Mean) ([1]; day 8 after tumour inoculation): 5.69 mm^2 | Tumour surface, overall values (Median) ([1]; day 8 after tumour inoculation): 2 mm^2 | Tumour volume, overall values (Mean) ([1]; day 8 after tumour inoculation): 9.91 mm^3 | Tumour volume, overall values (Median) ([1]; day 8 after tumour inoculation): 2 mm^3 | Tumour surface, overall values (Mean) [1, 3]: 13.69 mm^2 | Tumour surface, overall values (Median) [1, 3]: 16 mm^2 | Tumour volume, overall values (Mean) [1, 3]: 31.34 mm^3 | Tumour volume, overall values (Median) [1, 3]: 32 mm^3 | Tumour surface, overall values (Mean) [1, 4]: 20.875 mm^2 | Tumour surface, overall values (Median) [1, 4]: 20.5 mm^2 | Tumour volume, overall values (Mean) [1, 4]: 53.12 mm^3 | Tumour volume, overall values (Median) [1, 4]: 47.25 mm^3 | Tumour surface, overall values (Mean) [1, 5]: 32.37 mm^2 | Tumour surface, overall values (Median) [1, 5]: 27.5 mm^2 | Tumour volume, overall values (Mean) [1, 5]: 105.19 mm^3 | Tumour volume, overall values (Median) [1, 5]: 68.75 mm^3 | Tumour surface, overall values (Mean) [1, 6]: 42.12 mm^2 | Tumour surface, overall values (Median) [1, 6]: 39.5 mm^2 | Tumour volume, overall values (Mean) [1, 6]: 160.5 mm^3 | Tumour volume, overall values (Median) [1, 6]: 123.25 mm^3 | Tumour surface, overall values (Mean) [1, 7]: 50 mm^2 | Tumour surface, overall values (Median) [1, 7]: 39.5 mm^2 | Tumour volume, overall values (Mean) [1, 7]: 202.19 mm^3 | Tumour volume, overall values (Median) [1, 7]: 123.25 mm^3 | Tumour surface, overall values (Mean) [1, 8]: 57 mm^2 | Tumour surface, overall values (Median) [1, 8]: 46.5 mm^2 | Tumour volume, overall values (Mean) [1, 8]: 249.06 mm^3 | Tumour volume, overall values (Median) [1, 8]: 147.75 mm^3 | Tumour surface, overall values (Mean) [1, 9]: 68.87 mm^2 | Tumour surface, overall values (Median) [1, 9]: 52.5 mm^2 | Tumour volume, overall values (Mean) [1, 9]: 342.94 mm^3 | Tumour volume, overall values (Median) [1, 9]: 173.25 mm^3 | Tumour surface, overall values (Mean) [1, 10]: 78.81 mm^2 | Tumour surface, overall values (Median) [1, 10]: 53 mm^2 | Tumour volume, overall values (Mean) [1, 10]: 425.91 mm^3 | Tumour volume, overall values (Median) [1, 10]: 191 mm^3 | Differences in Ehrlich tumour growth rate vs. placebo, statistical significance p (Mann-Whitney U test) ([1]; all days scored after the day 13th): < 0.05 | Tumour surface, overall values (Mean) ([2]; day 0 after tumour inoculation): 0 mm^2 | Tumour surface, overall values (Median) ([2]; day 0 after tumour inoculation): 0 mm^2 | Tumour volume, overall values (Mean) ([2]; day 0 after tumour inoculation): 0 mm^3 | Tumour volume, overall values (Median) ([2]; day 0 after tumour inoculation): 0 mm^3 | Tumour surface, overall values (Median) [2, 11]: 0 mm^2 | Tumour volume, overall values (Median) [2, 11]: 0 mm^3
